{"source": "patent US20110123562A1", "about": "“ANTI-CANCER ACTIVE SUBSTANCE FROM ANTRODIA CAMPHORATA, METHOD FOR PREPARING THE SAME AND USE THEREOF” (priority 2009, published 2011)", "assay_type_in_all_cases": "cell-based", "key": {"[1]": {"tested_on": "breast cancer cells (MDA-MB-231)", "test": "Anti-proliferative activity against breast cancer cells", "conditions": "MDA-MB-231 breast cancer cells", "description": "(§1) HepG2 cells were obtained from American Type Culture Collection, ATCC, Rockville, Md., U.S.A. and were maintained in Williams medium E (WME), containing 10 mM/L HEPES, 5 μg/mL insulin, 2 μg/mL, glucagon, 0.05 μg/mL hydrocortisone, and 5% fetal bovine serum (Gibco Life Technologies, Grand Island, N.Y., USA). Colon cancer cells (CT26, BCRC 60443), prostate cancer cells (LNCaP, BCRC 60088) and breast cancer cells (MDA-MB-231, BCRC 60425) were obtained from the Biosources Collection and Research Center (BCRC) in the Food industry Research and Development Institute (Hsinchu, Taiwan).\n(§2) HepG2 cells in WME were cultured on a 96-well cell culture plate (2.5×10^4cells per well) and incubate at 37° C. with 5% CO2. After 4 hours incubation, replace the medium with different concentrations of Antrodia camphorata sample extracts. […] After 72 and 96 h of incubation, cell proliferation was determined by MTS assay (MTS-based cell titer 96 non-radioactivity cell proliferation assay, Promega, Madison, Wis., U.S.A.) so as to examine the anti-hepatoma activity. […] Cell proliferation was determined at 72 and 96 h from the MTS absorbance reading at 490 nm for each concentration compared with the control. […] The selective effect on cancer cells was expressed as SI (selective index) value. The SI value was determined as the ratio of CC50 versus EC50 for a tested sample."}, "[2]": {"tested_on": "prostate cancer cells (LNCaP)", "test": "Anti-proliferative activity against prostate cancer cells", "description": "as §1, §2"}, "HepG2 cells [3]": {"tested_on": "HepG2 cells", "test": "Anti-proliferation of HepG2 cells, MTS assay", "description": "as §1\nHepG2 cells in WME were cultured on a 96-well cell culture plate (2.5×10^4cells per well) and incubate at 37° C. with 5% CO2. After 4 hours incubation, replace the medium with different concentrations of Antrodia camphorata sample extracts. The Antrodia camphorata extracts were dissolved in 1% dimethyl sulfoxide (DMSO) and mixed with WME medium so as to prepare extracts at different concentrations and the final concentration of DMSO was maintained below 1%. Control cultures contained only extraction solvents, and blank wells contained 100 μL growth medium with no cells. After 72 and 96 h of incubation, cell proliferation was determined by MTS assay (MTS-based cell titer 96 non-radioactivity cell proliferation assay, Promega, Madison, Wis., U.S.A.) so as to examine the anti-hepatoma activity. MTS is a colorimetric method utilizing a tetrazolium reagent. Cell proliferation was determined at 72 and 96 h from the MTS absorbance reading at 490 nm for each concentration compared with the control. […] The EC50 of a sample is defined as the median effective dose of a sample (the concentration of the sample which results in 50% of cell viability) after treating the cancer cells for a certain period of time. At least three replications of each sample were tested to confirm cell proliferation and cytotoxicity. The selective effect on cancer cells was expressed as SI (selective index) value. The SI value was determined as the ratio of CC50 versus EC50 for a tested sample."}, "[4]": {"tested_on": "colon cancer cells (CT26)", "test": "Anti-proliferative activity against colon cancer cells", "description": "as §1, §2"}, "HepG2 cells [5]": {"tested_on": "HepG2 cells", "test": "Cytotoxicity (CC50) on HepG2 cells, MTS assay", "conditions": "concentration reducing cell viability to 50% of control in 24 h", "description": "as §1, §2"}}}
{"substance": "4-acetylantroquinonol B", "values": [{"measurement": "IC50", "setting": "[1]", "value": 0.091, "unit": "µg/mL"}, {"measurement": "cell viability", "setting": "[1]", "value": "below 50%"}, {"measurement": "IC50", "setting": "[2]", "value": "16.841 ± 3.41", "unit": "µg/mL"}, {"measurement": "cell viability", "setting": "[2]", "value": "below 50%"}, {"measurement": "anti-proliferative activity compared to crude extract", "setting": "HepG2 cells [3]", "value": 50, "unit": "times"}, {"measurement": "EC50 72 hours", "setting": "HepG2 cells [3]; 72 h treatment, MTS", "value": 0.1, "unit": "µg/mL"}, {"measurement": "EC50 96 hours", "setting": "HepG2 cells [3]; 96 h treatment, MTS", "value": 0.08, "unit": "µg/mL"}, {"measurement": "IC50", "setting": "[4]", "value": "48.12 ± 5.61", "unit": "µg/mL"}, {"measurement": "cell viability", "setting": "[4]", "value": "below 50%"}, {"measurement": "CC50", "setting": "HepG2 cells [5]", "value": "> 10", "unit": "µg/mL"}]}
